Results taken from patent US11957699B2, “Composition comprising punicalagin for inhibiting PAR2 activity” (INDUSTRY-ACADEMIC COOPERATION FOUNDATION, YONSEI UNIVERSITY, priority 2018, dated 2024).

Tests used:
[1] = system: C57BL6N mice with pruritus induced by PAR2-AP; test: Pruritus induced by PAR2-AP in mice (number of scratches); format: in vivo
Method: In seven-week-old C57BL6N mice, it was confirmed whether punicalagin (PG) has an effect of alleviating pruritus symptoms induced by PAR2 receptor activation by PAR2-AP (activating peptide). In addition, the effects of punicalin (PNC) and ellagic acid (EA), which are metabolites of punicalagin and contained in pomegranate peel in a large amount, were also confirmed.
Specifically, each of 0, 1, 3, and 10 mg/kg punicalagin (n=4) was dissolved in physiological saline and intraperitoneally injected, and after 30 minutes, 100 μg of PAR2-AP was intradermally injected to induce pruritus. As control groups, a group which was intraperitoneally injected with physiological saline only (n=4) and a group which was intraperitoneally injected with 10 mg/kg punicalagin (n=4) were established, and the number of scratches was measured for 40 minutes.

PAR2 [2] = target: T1, PAR2 (Homo sapiens, UniProt P55085); test: Increase of intracellular calcium ions by PAR2-AP in HT-29 cells (Fluo4-NW); format: cell-based; set-up: endogenous in cells; host or cells: HT-29 colon cancer cells
T1 sequence (P55085 26-397): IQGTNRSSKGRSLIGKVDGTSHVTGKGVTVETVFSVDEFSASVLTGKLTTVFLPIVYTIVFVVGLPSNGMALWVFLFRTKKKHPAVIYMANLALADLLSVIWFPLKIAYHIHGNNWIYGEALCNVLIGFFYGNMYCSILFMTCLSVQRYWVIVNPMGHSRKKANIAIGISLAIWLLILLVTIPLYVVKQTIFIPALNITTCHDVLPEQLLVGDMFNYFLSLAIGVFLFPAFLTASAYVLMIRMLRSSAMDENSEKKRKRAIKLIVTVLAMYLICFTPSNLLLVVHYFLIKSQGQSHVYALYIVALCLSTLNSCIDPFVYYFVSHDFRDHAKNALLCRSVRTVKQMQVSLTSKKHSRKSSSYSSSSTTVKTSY
Method: After colon cancer cells (HT-29) were cultured for 48 hours in a 96-well micro plate with the RPMI1640 culture medium, the culture medium was removed, and then, 100 μL of the Flou4-NW dye mixture was added. While blocking the light, it was stabilized for 1 hour such that a calcium ion dye (Ca^2+ dye) was loaded into the cells. Next, after treating punicalin (0, 3, 10, and 30 μM), punicalagin (0, 0.3, 1, 2, 3, and 10 μM), or ellagic acid (0, 30, and 100 μM) for 10 minutes by concentration, each well was treated with 30 μM PAR2-AP (PAR2-activating peptide, SLIGRL-NH2) to measure the concentration change in intracellular calcium ions.

PAR2 [3] = target: T1, PAR2; test: Intracellular calcium increase by trypsin (PAR2 receptor activation) in HaCaT keratinocytes; format: cell-based; set-up: endogenous in cells; host or cells: HaCaT keratinocytes; conditions: HaCaT, 0.1 μM trypsin, 10 minutes pretreatment
Method: After keratinocytes (HaCaT) were cultured for 48 hours in a 96-well micro plate with the DMEM culture medium, the culture medium was removed, and then, 100 μL of the Flou4-NW dye mixture was added. While blocking the light, it was stabilized for 1 hour such that a calcium ion dye (Ca^2+ dye) was loaded into the cells. 100 μM punicalagin was treated, and the concentration change of intracellular calcium ions was measured for 5 minutes (panel A of FIG. 17). Next, punicalin (0, 1, 3, 10, 20, 30, 100, and 300 μM) by concentration (panel B of FIG. 17) or punicalagin (0, 1, 3, 5, 10, 20, 30, and 100 μM) by concentration (panel C of FIG. 17) was treated for 10 minutes, and then, each well was treated with 0.1 μM trypsin to measure the concentration change of intracellular calcium ions according to PAR2 receptor activation.

[4] = system: SD rats with acute pancreatitis induced by caerulein; test: Acute pancreatitis induced by caerulein in rats; format: in vivo; conditions: 10 mg/kg, 30 minutes before 40 μg/kg caerulein, pancreas extracted after 2 hours
Method: In 6-week-old SD rats, it was confirmed whether punicalagin has an effect of alleviating symptoms of acute pancreatitis induced by caerulein.
Specifically, […], and after 30 minutes, 40 μg/kg of caerulein, which is an acute pancreatitis-inducing substance, was intraperitoneally injected, and then, after 2 hours, the pancreas of the experimental animals was extracted and analyzed.
First, the weight of the extracted pancreas was measured to determine whether punicalagin inhibits edema, which is a symptom of acute pancreatitis. As a result, it was confirmed that when 10 mg/kg punicalagin was administered to […], in which acute pancreatitis was induced by caerulein, the edema of the pancreas was inhibited by 95% or more (panel A of FIG. 8).
Next, as a result of observing the nucleus and cytoplasm of the extracted pancreatic tissue with a microscope through H&E staining in order to confirm the damage to pancreatic cells by caerulein, it was confirmed that in the rats administered with caerulein, the distance between pancreatic cells was increased and the cells were damaged due to symptoms of acute pancreatitis.

| Structure (SMILES) | number of scratches for 40 minutes ([1]; 10 mg/kg, PAR2-AP group about 240) | inhibitory effect on the PAR2 receptor (PAR2 [2]; found by compound library search and molecular physiological experiments) | inhibition of PAR2 receptor activity by trypsin (PAR2 [3]) | inhibition of edema of the pancreas (pancreas weight) [4] | numbers of scratches ([1]; 3 mg/kg ellagic acid group (n=3)) | inhibition of the PAR2 receptor (PAR2 [2]; HT-29 cells, PAR2-AP, high concentration (100 μM)) |
| --- | --- | --- | --- | --- | --- | --- |
| O=C1OC[C@H]2OC(O)[C@H](O)[C@@H](O)[C@@H]2OC(=O)c2cc(O)c(O)c(O)c2-c2c(O)c(O)c3oc(=O)c4c(c(O)c(O)c5oc(=O)c2c3c54)-c2c1cc(O)c(O)c2O (mixture of isomers) [punicalin, reference compound] | about 197 times | relatively weak inhibitory effect | inhibited PAR2 receptor activity by trypsin in a concentration-dependent manner |  |  |  |
| O=c1oc2c(O)c(O)cc3c(=O)oc4c(O)c(O)cc1c4c23 [ellagic acid, reference compound] |  |  |  | not significantly inhibited | not significantly reduced | did not inhibit |
